In patent US12390419B2, “Formulations of (R)-2-amino-3-phenylpropyl carbamate” (AXSOME MALTA LTD., priority 2016, dated 2025):
Converted amounts (≈) assume the structure as drawn.

Assays:
[1] = Dissolution of coated APC tablets in three media (apparatus 1 basket, 100 rpm, 900 ml, 37° C.); format: physicochemical
Protocol: A substantial concern was the effect of media pH. Although APC will be developed as an immediate release product, FDA guidances require comparison of profiles in three media including pH 6.8 (representing intestinal pH). […] The media used were 0.1 N HCl pH 1.2, acetate buffer pH 4.5, and phosphate buffer pH 6.8. The dissolution study was carried using 12 tablets per dose, apparatus 1 (basket), 900 ml media volume, 37° C., 100 rpm. The tablets were coated with Opadry white polymer system.

[2] = Solubility of APC in 0.2M phosphate buffers; format: physicochemical

Q: Which results are given for NC(=O)OC[C@H](N)Cc1ccccc1 [APC, (R)-2-amino-3-phenylpropyl carbamate]?
A: Percent release ([1]; 37.5 mg tablet, pH 1.2, 5 min): 71.9%; Percent release ([1]; 37.5 mg tablet, pH 1.2, 10 min): 99.3%; Percent release ([1]; 37.5 mg tablet, pH 1.2, 15 min): 99.7%; Percent release ([1]; 37.5 mg tablet, pH 4.5, 5 min): 76.8%; Percent release ([1]; 37.5 mg tablet, pH 4.5, 10 min): 101.8%; Percent release ([1]; 37.5 mg tablet, pH 4.5, 15 min): 102.1%; Percent release ([1]; 37.5 mg tablet, pH 6.8, 5 min): 69.6%; Percent release ([1]; 37.5 mg tablet, pH 6.8, 10 min): 100.2%; Percent release ([1]; 37.5 mg tablet, pH 6.8, 15 min): 100.7%; Percent release ([1]; 75 mg tablet, pH 1.2, 5 min): 62.9%; Percent release ([1]; 75 mg tablet, pH 1.2, 10 min): 98.7%; Percent release ([1]; 75 mg tablet, pH 1.2, 15 min): 99.4%; Percent release ([1]; 75 mg tablet, pH 4.5, 5 min): 53.9%; Percent release ([1]; 75 mg tablet, pH 4.5, 10 min): 100.8%; Percent release ([1]; 75 mg tablet, pH 4.5, 15 min): 102.5%; Percent release ([1]; 75 mg tablet, pH 6.8, 5 min): 57.6%; Percent release ([1]; 75 mg tablet, pH 6.8, 10 min): 99.4%; Percent release ([1]; 75 mg tablet, pH 6.8, 15 min): 100.2%; Percent release ([1]; 150 mg tablet, pH 1.2, 5 min): 46.8%; Percent release ([1]; 150 mg tablet, pH 1.2, 10 min): 96.9%; Percent release ([1]; 150 mg tablet, pH 1.2, 15 min): 98.4%; Percent release ([1]; 150 mg tablet, pH 4.5, 5 min): 42.6%; Percent release ([1]; 150 mg tablet, pH 4.5, 10 min): 97.7%; Percent release ([1]; 150 mg tablet, pH 4.5, 15 min): 100.4%; Percent release ([1]; 150 mg tablet, pH 6.8, 5 min): 42.4%; Percent release ([1]; 150 mg tablet, pH 6.8, 10 min): 97.4%; Percent release ([1]; 150 mg tablet, pH 6.8, 15 min): 100.7%; Percent release ([1]; 300 mg tablet, pH 1.2, 5 min): 35.0%; Percent release ([1]; 300 mg tablet, pH 1.2, 10 min): 91.2%; Percent release ([1]; 300 mg tablet, pH 1.2, 15 min): 99.5%; Percent release ([1]; 300 mg tablet, pH 4.5, 5 min): 30.0%; Percent release ([1]; 300 mg tablet, pH 4.5, 10 min): 89.1%; Percent release ([1]; 300 mg tablet, pH 4.5, 15 min): 99.8%; Percent release ([1]; 300 mg tablet, pH 6.8, 5 min): 31.6%; Percent release ([1]; 300 mg tablet, pH 6.8, 10 min): 89.9%; Percent release ([1]; 300 mg tablet, pH 6.8, 15 min): 100.2%; solubility ([2]; 0.2M phosphate buffer, pH 6.8, aqueous buffer, thermodynamic from solid): 26 mg/mL (≈ 134 mM); solubility ([2]; aqueous buffer, thermodynamic from solid, 0.2M phosphate buffer pH 5.33, pH after equilibration 4.25): 542 mg/mL (≈ 2790 mM); solubility ([2]; aqueous buffer, thermodynamic from solid, 0.2M phosphate buffer pH 5.95, pH after equilibration 4.78): 525 mg/mL (≈ 2710 mM); solubility ([2]; aqueous buffer, thermodynamic from solid, 0.2M phosphate buffer pH 6.97, pH after equilibration 6.76): 26.6 mg/mL (≈ 137 mM); solubility ([2]; aqueous buffer, thermodynamic from solid, 0.2M phosphate buffer pH 8.02, pH after equilibration 7.47): 22.5 mg/mL (≈ 116 mM); solubility ([2]; aqueous buffer, thermodynamic from solid, 0.2M phosphate buffer pH 8.99, pH after equilibration 7.55): 22.4 mg/mL (≈ 115 mM); solubility ([2]; pH 4.22, thermodynamic from solid, pH of buffer N/A (water), pH after equilibration 4.22): 534 mg/mL (≈ 2750 mM); solubility ([2]; water or acidic media, water, thermodynamic from solid): 530 mg/mL (≈ 2730 mM)
